PMC8963105, “A Novel Modulator of the Renin–Angiotensin System, Benzoylaconitine, Attenuates Hypertension by Targeting ACE/ACE2 in Enhancing Vasodilation and Alleviating Vascular Inflammation” (Frontiers in Pharmacology, 2022)

Legend:
[1] = molecular target: hrACE2 (Homo sapiens, UniProt Q9BYF1); experiment: SensoLyte390 ACE2 activity assay (enzyme kinetics, cell-free); type: biochemical; conditions: 37°C, 30 min, read-out: EC50 (ACE2 activity, excitatory effect)
Protocol: ACE and ACE2 activities were measured using the ACE activity assay kit and SensoLyte390 ACE2 activity assay kit (Anaspec, Fremont, CA, United States), respectively, according to the manufacturer’s instructions with some modifications. Briefly, rhACE solution dissolved in deionized water was used for analysis. ACE activity was measured in a reaction system with 50 μl of the sample and 50 μl of the ACE substrate solution with or without BAC (10^–4 to 10^–2 μM). ACE2 activity was assayed in the same manner as ACE activity. All assays were performed every 10 s for 30 min at 37°C using a Varioskan LUX fluorescence microplate reader (Thermo Fisher Scientific, Waltham, MA, United States). The autofluorescence value in each assay was subtracted from the measured values to generate the final results. The relative fluorescence unit of each sample was normalized to the corresponding total protein concentration, which was measured using a Pierce BCA protein assay kit (Thermo Fisher Scientific).

[2] = test system: Ang I; experiment: serum Ang I by ELISA in SHRs after 14-day oral administration; type: in vivo, rat; conditions: oral 14 days
Excerpt: (§1) All three MDAs (BAC, BMC, and BHC) were purchased from Nature-Standard Co., Ltd. (Shanghai, China) and their purities were all over 98%. The anti-hypertensive effects of MDAs were studied in both acute and chronic experiments. The 16-week-old SHRs were used in animal experiments, and each group had six rats. In the acute experiment, drug administration was via i.v. injection. For i.v. injection, the animals were randomly assigned into four groups: vehicle (0.1% DMSO–0.9% salt solution, n = 6), low-dose group (0.6 mg kg^−1 body weight, n = 6), medium-dose group (2 mg kg^−1 body weight, n = 6), and high-dose group (6 mg kg^−1 body weight, n = 6). The drug was administered using a venous catheter. […] Blood pressure was recorded in real time.
(§2) Blood samples were collected from the left femoral artery of rats at the end point, followed by centrifugation at 1,000 × g for 15 min at 4°C. […] The concentrations of circulating ACE, ACE2, Ang I, Ang II, Ang (1–7), TNF-α, and IL-6 in serum were measured using the ELISA kits [ACE, cat#xy-R2401c, X-Y Biotechnology, Shanghai, China; ACE2, cat#xy-ACE2-Ra, X-Y Biotechnology; Ang I, cat#xy-E12541, X-Y Biotechnology; Ang II, cat#xy-R1430c, X-Y Biotechnology; Ang (1–7), cat#xy-Ang1-7-Ra, X-Y Biotechnology; TNF-α, cat#GM1149, Servicebio, Shanghai, China; IL-6, cat#GM1154, Servicebio] according to the manufacturer’s instructions. […]

[3] = test system: IL-6; experiment: serum IL-6 by ELISA in SHRs; type: in vivo, rat; conditions: oral 14 days
Excerpt: as §1, §2

[4] = test system: COX-2; experiment: COX-2 expression in aorta of SHRs (Western blot); type: in vivo, rat; conditions: oral 14 days
Excerpt: as §1, with “catheter. In chronic experiments, the animals were randomly assigned into five groups: vehicle (5% Tween 80–0.9% salt solution, n = 6), captopril group (5 mg kg^−1 body weight, n = 6), low-dose group (3 mg kg^−1 body weight, n = 6), medium-dose group (10 mg kg^−1 body weight, n = 6), and high-dose group (30 mg kg^−1 body weight, n = 6). Oral administration with drug or 5% Tween 80–0.9% salt solution was carried out once a day, and continued for 14 days.” for “catheter.”
The cell samples and tissue sample were collected and placed in ice rapidly. […] Protein concentration in cell lysates was measured using a Bio-Rad DC Protein Assay Kit […]. […]

[5] = test system: mice; set-up: method as in Wada et al., 2005; conditions: ref Wada et al., 2005; cited from earlier work

hrACE2, sequence (Q9BYF1 18-805): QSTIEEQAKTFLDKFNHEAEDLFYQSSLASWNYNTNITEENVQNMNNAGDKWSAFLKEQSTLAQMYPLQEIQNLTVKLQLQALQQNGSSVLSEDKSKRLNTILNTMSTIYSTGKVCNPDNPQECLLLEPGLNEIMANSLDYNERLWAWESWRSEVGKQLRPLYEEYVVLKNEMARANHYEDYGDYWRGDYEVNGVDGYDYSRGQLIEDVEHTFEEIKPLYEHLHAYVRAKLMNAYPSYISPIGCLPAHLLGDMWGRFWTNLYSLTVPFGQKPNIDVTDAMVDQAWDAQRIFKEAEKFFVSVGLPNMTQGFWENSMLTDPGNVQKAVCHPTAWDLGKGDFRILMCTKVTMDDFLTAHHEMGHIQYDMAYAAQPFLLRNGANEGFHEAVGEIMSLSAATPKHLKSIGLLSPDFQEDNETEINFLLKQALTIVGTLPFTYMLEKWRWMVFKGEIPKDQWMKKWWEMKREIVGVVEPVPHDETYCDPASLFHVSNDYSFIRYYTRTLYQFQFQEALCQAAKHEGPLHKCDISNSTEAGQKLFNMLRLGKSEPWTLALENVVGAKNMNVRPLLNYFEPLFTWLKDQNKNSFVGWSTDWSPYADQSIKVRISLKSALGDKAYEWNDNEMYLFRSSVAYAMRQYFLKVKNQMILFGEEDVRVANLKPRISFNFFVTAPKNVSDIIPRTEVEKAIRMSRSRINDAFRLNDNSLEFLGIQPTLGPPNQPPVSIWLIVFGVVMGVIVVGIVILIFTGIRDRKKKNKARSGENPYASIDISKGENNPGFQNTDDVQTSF

SMILES: CCN1CC2(COC)C(O)CC(OC)C34C5CC6(O)C(OC)C(O)C(O)(C5C6OC(=O)c5ccccc5)C(C(OC)C23)C14 (centres unmarked) [BAC, Benzoylaconitine]
- EC50 [1]: 1500 nM
- level of Ang I in blood [2]: did not change
- level of IL-6 in serum [3]: reduced
- expression of COX-2 [4]: downregulated
- oral median lethal dose (LD50) [5]: 1,500 mg kg^−1
